Measured values published in US20030021782A1, “Chlamydia infection” (priority 2001, published 2003).

Test system: C. pneumoniae strain AR-39 in HMEC-1 cells
Assay: Assay for growth (infectivity) enhancing activity: C. pneumoniae inclusion counts in HMEC-1 cell culture
Type: cell-based
Details: for enhancement of growth of C. pneumoniae strain AR-39 in HMEC-1 cells: added to culture medium at 1, 5 and 10 ng/mL, 3 days incubation
Method: To assay for growth enhancing activity, conditioned medium, fractions of conditioned medium, insulin-like growth factor-1 (IGF-1) and IGF-2 were tested in HMEC-1 cell culture for enhanced susceptibility to C. pneumoniae. HMEC-1 cells were trypsinized from stock cultures and plated to achieve a cell monolayer in 24 h in 24-well culture plates. A 12 mm diameter glass coverslip was placed in each well for growing cells for ease of staining for microscopic observation and counting inclusions for assaying titers. For inoculation of cell culture, the culture fluid was removed and the cell monolayer washed three times with Hank's balanced salt solution. Two-tenth mL of inoculum were added per well and the plate was centrifuged for 1 h at 700 to 800× g at 25° C. After centrifugation, the inocula were removed, 1 mL of specified culture medium was added, and the plates were incubated in a CO2 incubator at 35° C. for 3 days. After incubation, coverslips were removed, fixed with methanol and stained with a Chlamydia genus-specific monoclonal antibody conjugated with fluorescein isothiocyanate. Inclusions were counted in 30 random fields at ×400 magnification. The infectivity titers were expressed as inclusion forming units (ifus) per milliliter, which had been adjusted for dilution factor and inoculum size (Furness et al., J. Gen Micro. 23:213-9, 1960). Triplicate coverslips were counted in each experiment. Experiments were repeated 2 or 3 times.
Characterization of Chlamydial growth enhancing factors was carried out as follows. Conditioned medium of a one day old culture of U937 cells in RPMI supplemented with 2% fetal calf serum was used. Conditioned medium was heated at 70° C. for 2 h and tested for growth enhancing activity against AR-39 in HMEC-1 cells. An equal volume of conditioned medium was mixed with fresh endothelial basal medium containing 2% fetal calf serum for culturing infected HMEC-1 cells.
For determining molecular size, one day old conditioned medium of U937 cells cultured in serum-free macrophage culture medium was fractionated into molecular weight ranges of larger than 30,000, 30,000 to 10,000, 10,000 to 5,000 and smaller than 5,000 using three different pore size filters, Biomax-30, Biomax-10 and Biomax-5 ultrafilters (Millipore, Bedford, Mass.) with the molecular weight cut-off of 30,000; 10,000; and 5,000, respectively. For size fractionation, a starting volume of 200 mL of conditioned medium was used. Each fraction was concentrated to 2 mL (a 100× concentration). The remaining filtrate which had been passed through the 5,000 molecular weight pore size filter also was saved for testing. That fraction and the starting conditioned medium were tested without concentration. […]

| Substance | enhancement of growth of C. pneumoniae strain AR-39 in HMEC-1 cells | enhancing activity (increase) (0.5 ng/mL, p<0.05, N=3) [%] | enhancing activity (increase) (5 ng/mL, p<0.001) [%] |
| --- | --- | --- | --- |
| insulin-like growth factor-1 [IGF-1] | not |  |  |
| insulin-like growth factor-2 [IGF-2] | enhanced the growth | 35 | 256 |
